# Measured values taken from ChEMBL document CHEMBL1201862, “PubChem BioAssay data set” (2004).
# Activity calls are given as the source filed them.
# How the values were obtained:
# [1] = molecular target: T1, Carboxy-terminal domain RNA polymerase II polypeptide A small phosphatase 1 (Homo sapiens, UniProt Q9GZU7); assay: CTDSP1 inhibitors, concentration-response, biochemical, absorbance readout, ultra-high-throughput screen actives (AID 540297); assay type: functional
# T1 sequence (Q9GZU7 whole entry): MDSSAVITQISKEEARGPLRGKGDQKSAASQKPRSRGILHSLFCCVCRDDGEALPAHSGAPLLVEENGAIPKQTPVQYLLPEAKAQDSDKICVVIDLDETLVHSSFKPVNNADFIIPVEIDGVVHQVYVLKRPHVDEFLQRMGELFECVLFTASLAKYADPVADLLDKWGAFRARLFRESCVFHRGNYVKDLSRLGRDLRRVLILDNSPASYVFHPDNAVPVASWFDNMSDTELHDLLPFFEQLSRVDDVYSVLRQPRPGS
# [2] = molecular target: T2, Corticotropin-releasing factor receptor 2/Corticotropin-releasing factor-binding protein (Homo sapiens, UniProt P24387+Q13324); assay: activators of CRF receptor 2 with binding protein – uHTS hits, confirmation (AID 602473); assay type: functional; details: read-out: EC50_Mean
# T2 sequence (Q13324 whole entry): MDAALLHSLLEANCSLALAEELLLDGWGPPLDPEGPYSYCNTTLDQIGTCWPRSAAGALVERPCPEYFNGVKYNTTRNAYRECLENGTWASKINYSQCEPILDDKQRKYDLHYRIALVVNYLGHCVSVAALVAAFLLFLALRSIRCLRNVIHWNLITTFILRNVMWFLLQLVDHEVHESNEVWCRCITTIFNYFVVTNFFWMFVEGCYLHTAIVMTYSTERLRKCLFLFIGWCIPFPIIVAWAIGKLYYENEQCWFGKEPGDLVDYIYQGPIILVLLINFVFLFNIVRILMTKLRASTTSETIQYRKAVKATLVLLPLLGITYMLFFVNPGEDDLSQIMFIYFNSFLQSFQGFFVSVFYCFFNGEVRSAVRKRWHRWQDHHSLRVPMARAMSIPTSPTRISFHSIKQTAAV
# T2 sequence (P24387 whole entry): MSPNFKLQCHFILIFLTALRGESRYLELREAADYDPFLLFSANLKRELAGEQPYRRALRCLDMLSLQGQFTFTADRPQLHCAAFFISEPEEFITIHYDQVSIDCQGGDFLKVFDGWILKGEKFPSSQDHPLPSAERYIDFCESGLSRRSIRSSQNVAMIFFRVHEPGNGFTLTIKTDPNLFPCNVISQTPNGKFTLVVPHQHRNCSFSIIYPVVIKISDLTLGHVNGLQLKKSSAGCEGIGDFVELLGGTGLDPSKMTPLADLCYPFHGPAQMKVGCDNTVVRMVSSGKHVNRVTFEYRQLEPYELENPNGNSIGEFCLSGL
# [3] = molecular target: T3, Protein skinhead-1 (Caenorhabditis elegans, UniProt P34707); assay type: functional
# T3 sequence (P34707 whole entry): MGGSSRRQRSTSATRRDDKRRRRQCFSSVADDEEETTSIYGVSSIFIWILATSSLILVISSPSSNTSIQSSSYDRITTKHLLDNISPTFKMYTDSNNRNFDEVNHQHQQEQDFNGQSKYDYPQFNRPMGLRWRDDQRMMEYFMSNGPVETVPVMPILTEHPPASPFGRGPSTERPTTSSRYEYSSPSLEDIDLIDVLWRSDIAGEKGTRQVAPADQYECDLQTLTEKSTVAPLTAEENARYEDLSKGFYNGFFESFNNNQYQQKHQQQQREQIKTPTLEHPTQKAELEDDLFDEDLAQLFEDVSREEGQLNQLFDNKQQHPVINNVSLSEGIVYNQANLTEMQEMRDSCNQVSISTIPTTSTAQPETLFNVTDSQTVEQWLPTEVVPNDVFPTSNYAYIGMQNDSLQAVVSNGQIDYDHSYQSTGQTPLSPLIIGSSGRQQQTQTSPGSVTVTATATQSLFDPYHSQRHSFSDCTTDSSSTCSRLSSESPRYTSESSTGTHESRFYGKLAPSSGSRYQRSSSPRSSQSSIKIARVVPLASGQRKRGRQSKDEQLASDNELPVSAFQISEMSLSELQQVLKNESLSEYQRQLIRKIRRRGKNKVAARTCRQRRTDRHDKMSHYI
# [4] = Luminescence Cell-Based Dose Response HTS to Identify Activators of Luciferase Translation or Activity in H4 […] Cells. [Related pubchem assays: 1829 (Project Summary), 1814 (Primary HTS)]; assay type: functional
# [5] = system: H4; assay: Luminescence Cell-Based Dose Response HTS to Identify Activators of 5'UTR Stem-Loop Driven Prion Protein mRNA Translation in H4 Neuroglioblastoma Cells. [Related pubchem assays: 1829 (Project Summary), 1814 (Primary HTS)]; assay type: functional; details: Homo sapiens
# [6] = system: H9c2; assay: cells; assay type: functional, cell-based; details: Rattus norvegicus, H9c2, Myocardium;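 further: confirmatory concentration-response retest of ultra-high-throughput screening hits for modulation of myocardial damage; cell death induced by hydrogen peroxide oxidative stress; compound pretreatment for 60 min then peroxide exposure for 2 h; potency is for protecting the cells against peroxide damage rather than for killing them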
# [7] = molecular target: T4, RNA-binding protein pos-1 (Caenorhabditis elegans, UniProt G5EF15); assay: disruptors of C. elegans POS-1 RNA interaction – biochemical, fluorescence polarization, dose response (AID 1964);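 further: purified POS-1 fused to maltose binding protein made in E. coli; potency of compounds blocking POS-1 binding to fluorescent RNA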
# T4 sequence (G5EF15 whole entry): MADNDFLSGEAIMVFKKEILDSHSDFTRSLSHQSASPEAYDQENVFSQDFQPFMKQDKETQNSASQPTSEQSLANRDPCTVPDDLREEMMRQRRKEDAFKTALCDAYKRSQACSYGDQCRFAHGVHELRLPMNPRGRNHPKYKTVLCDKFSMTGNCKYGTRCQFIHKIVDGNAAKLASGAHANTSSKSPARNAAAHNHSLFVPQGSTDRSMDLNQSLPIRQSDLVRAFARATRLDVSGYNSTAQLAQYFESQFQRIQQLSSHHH
# [8] = molecular target: T5, Zinc finger protein mex-5 (Caenorhabditis elegans, UniProt Q9XUB2); assay: potency of MEX-5 RNA-binding blockers – biochemical, C. elegans, fluorescence polarization, dose response (AID 1960)
# T5 sequence (Q9XUB2 whole entry): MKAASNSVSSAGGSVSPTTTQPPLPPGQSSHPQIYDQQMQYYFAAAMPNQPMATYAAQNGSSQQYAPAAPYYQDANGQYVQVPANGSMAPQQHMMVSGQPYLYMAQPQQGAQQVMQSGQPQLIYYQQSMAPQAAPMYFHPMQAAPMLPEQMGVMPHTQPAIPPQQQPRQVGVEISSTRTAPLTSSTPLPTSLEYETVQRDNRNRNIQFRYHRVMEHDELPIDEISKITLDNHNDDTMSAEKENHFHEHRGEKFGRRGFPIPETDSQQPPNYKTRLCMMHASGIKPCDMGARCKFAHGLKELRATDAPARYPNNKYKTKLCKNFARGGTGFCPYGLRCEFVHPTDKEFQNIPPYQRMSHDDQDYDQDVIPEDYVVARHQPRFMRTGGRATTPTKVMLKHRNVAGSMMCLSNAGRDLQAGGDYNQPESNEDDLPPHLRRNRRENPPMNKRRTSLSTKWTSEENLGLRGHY
# [9] = molecular target: T6, Heat shock factor protein 1 (Mus musculus, UniProt P38532); assay: enhancement of HSF1-driven luciferase signal – cell-based, NIH3T3, luminescence, dose retest, confirmation (AID 435004); assay type: functional;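 further: stress induced by proteasome inhibitor MG132 added 30 min after compound; luciferase reporter driven by HSF1 response element in NIH3T3 cells; actives raise luminescence as potentiators of the MG132 stress response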
# T6 sequence (P38532 whole entry): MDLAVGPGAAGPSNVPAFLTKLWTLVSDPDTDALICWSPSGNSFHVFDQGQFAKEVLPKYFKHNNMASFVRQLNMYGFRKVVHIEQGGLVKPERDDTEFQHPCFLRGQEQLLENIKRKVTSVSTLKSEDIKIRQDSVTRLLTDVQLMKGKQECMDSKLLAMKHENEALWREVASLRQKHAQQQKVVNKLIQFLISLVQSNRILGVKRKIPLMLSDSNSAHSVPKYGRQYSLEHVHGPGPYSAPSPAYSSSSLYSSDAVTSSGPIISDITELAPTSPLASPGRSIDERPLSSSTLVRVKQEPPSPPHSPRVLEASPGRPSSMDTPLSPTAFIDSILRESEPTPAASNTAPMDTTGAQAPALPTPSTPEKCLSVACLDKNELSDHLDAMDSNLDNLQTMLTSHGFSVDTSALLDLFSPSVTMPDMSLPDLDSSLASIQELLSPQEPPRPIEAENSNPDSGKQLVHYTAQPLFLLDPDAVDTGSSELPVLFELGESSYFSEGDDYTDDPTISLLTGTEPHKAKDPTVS
smiles,measurement,setting,value
Fc1ccc(CSc2nc3cc(Br)c[nH]c-3n2)cc1,IC50,[1],9.63 µM (active)
N#Cc1c(SCC(=O)Nc2cccc(C(F)(F)F)c2)sc2c(O)cc(O)nc12,IC50,[1],10.4 µM (active)
CC(Oc1ccc(Br)cc1)C(=O)N1CCc2ccccc21 (stereo not given),EC50,[2],8.32 µM (active)
Clc1ccc(OCCCc2nc(-c3ccncc3)no2)c(Cl)c1,IC50,[3],20.4 µM (active)
c1ccc(-c2noc(CC3CCCCC3)n2)cc1,EC50,[4],> 120 µM (not active)
same,EC50,[5],> 120 µM (not active)
Cc1sc2nc(NCCO)nc(O)c2c1C,IC50,[6],> 79 µM (inactive)
O=C1/C(=C/c2ccco2)CCc2ccccc21,IC50,[3],31.2 µM (active)
Cc1nnc(SCC2=C(C(=O)O)N3C(=O)C(NC(=O)COc4ccccc4)C3SC2)s1 (stereo not given),IC50,[1],8.97 µM (active)
CCCn1c(=O)[nH]c(=O)c2c1nc(-c1ccccc1)n2CCN1CCOCC1,IC50,[1],47.8 µM (active)
CCC(=O)N1c2ccc(S(=O)(=O)CCC(=O)NCc3cccs3)cc2CC1C (stereo not given),IC50,[3],> 100 µM (inactive)
O=C(NCc1ccco1)C1CC(c2ccccc2O)=NO1 (stereo not given),EC50,[2],> 53 µM (inactive)
CC(C)c1ccc2oc(-c3ccc(NC(=O)c4nnc[nH]4)cc3)nc2c1,IC50,[1],6.65 µM (active)
CC1(C)Oc2ccc3ccc(=O)oc3c2C(/C=N/c2ccccn2)=C1O,IC50,[6],> 79 µM (inactive)
O=C(N/N=C/c1ccccn1)c1cc(-c2cccc3ccccc23)[nH]n1,IC50,[6],> 79 µM (inactive)
O=C(O)COc1ccc(Br)cc1/C=N/O,IC50,[1],8.03 µM (active)
O=C(N/N=C/c1ccccn1)c1ccc(NC(=O)c2cccc([N+](=O)[O-])c2)cc1,IC50,[6],> 79 µM (inactive)
CN(C)S(=O)(=O)c1ccc(N2CCCC2)c(C(=O)NCc2cccc(C(F)(F)F)c2)c1,IC50,[3],> 100 µM (inactive)
CN1CN(c2ccccc2)C2(CCN(CCCSc3ccccc3NC(=O)/C=C/c3ccccc3)CC2)C1=O,EC50,[2],6.22 µM (active)
O=C(Nc1ccc2c(c1)oc1ccccc12)N1CCOCC1,EC50,[4],1.32 µM (active)
same,EC50,[5],> 120 µM (not active)
NC(=O)c1cccc(-c2coc3c(C(=O)NCCc4ccccc4)cccc23)c1,IC50,[6],> 79 µM (inactive)
Cc1ccc(/N=C/c2sc(O)c3ccccc23)c(C)c1,EC50,[7],> 300 µM (not active)
same,EC50,[8],> 300 µM (inconclusive)
CCCC(=O)Nc1cc(C)c2c(=O)oc3ccccc3c2n1,IC50,[6],> 79 µM (inactive)
CCCCOc1ccc(-c2nnc(-c3ccco3)o2)cc1,IC50,[3],> 100 µM (inactive)
same,EC50,[9],> 260 µM (inactive)
O=C(CSc1nc2ccccc2o1)NCc1nnc(O)c2ccccc12,IC50,[6],8.34 µM (active)
Cc1nonc1OC(C)CNc1ccc([N+](=O)[O-])cc1 (stereo not given),IC50,[3],> 100 µM (inactive)
O=C(NCCC1=CCCCC1)c1cnc2n(c1=O)CCS2,EC50,[4],39.9 µM (active)
same,EC50,[5],56.6 µM (active)
O=C(Nc1cccc(-c2nc3ccccc3s2)c1)c1cc(=O)c2ccccc2o1,IC50,[1],5.07 µM (active)
COC(=O)[C@H](CCSC)NC(=O)NC1CCN(Cc2ccccc2)CC1,EC50,[7],> 300 µM (not active)
same,EC50,[8],> 300 µM (not active)
CCOC(=O)c1nc(Nc2ccc(C(=O)OC)cc2)c2ccccc2n1,IC50,[6],> 79 µM (inactive)
CCOC(=O)N1CC=C2C(C#N)=C(N)C(C#N)(C#N)[C@H](c3ccsc3)[C@H]2C1,EC50,[7],78.8 µM (active)
same,EC50,[8],58.7 µM (active)
COc1ccc(OC)c(C2C(C(=O)c3ccco3)=C(O)C(=O)N2CCN2CCOCC2)c1 (stereo not given),EC50,[7],> 300 µM (not active)
same,EC50,[8],> 300 µM (not active)
CCCc1nc2ccccc2c(C(=O)OCc2nnc(-c3cc(OC)c(OC)c(OC)c3)o2)c1CC,IC50,[6],> 79 µM (inactive)
CC(=O)Oc1oc(-c2ccccc2)nc1/C=N/c1ccc(N(C)C)cc1,EC50,[7],> 300 µM (not active)
same,EC50,[8],> 300 µM (not active)
NC(=O)CC(NC(=O)Cc1cccc2ccccc12)c1ccc(N2CCC(N3CCCCC3)CC2)c([N+](=O)[O-])c1 (stereo not given),IC50,[3],> 100 µM (inactive)
O=C(CN1C(=O)N/C(=C\c2ccccc2OCc2ccc(C(=O)O)cc2)C1=O)Nc1ccccc1F,IC50,[1],7.13 µM (active)
Cc1cc(C)nc(N2C(=O)CC(C(C)c3ccccc3)C2=O)n1 (stereo not given),IC50,[3],> 100 µM (inactive)
Cc1[nH]c2ccccc2c1/C=N/NC(=S)NC(C)C,EC50,[7],> 300 µM (not active)
same,EC50,[8],> 300 µM (not active)
Fc1ccc(COc2ccc(-c3nnco3)cc2)c(Cl)c1,IC50,[3],6.56 µM (active)
O=C1NC(=O)N(CCc2ccc(F)cc2)C(=O)/C1=C/NNC(=O)c1ccccc1,EC50,[7],> 300 µM (not active)
same,EC50,[8],> 300 µM (not active)
